Laboratory results as given in patent publication US20230365582A1, “NOVEL COMPOUNDS HAVING INHIBITORY ACTIVITY ON PROSTAGLANDIN E2 RECEPTOR AND USES THEREOF” (KANAPH THERAPEUTICS INC., priority 2020, published 2023).

Experiments:
[1] = biological target: T1, hEP4 (Homo sapiens, UniProt P35408); assay: hEP4 cAMP assay; assay type: cell-based; conditions: HEK293 cells overexpressing hEP4; PGE2 agonist 20 nM; graded per Table 21; read-out: IC50 (nM) EP4 cAMP
T1 construct: expressed in transfected cells; host or cells: HEK293
Outline: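 HEK293 cells overexpressing hEP4, starved 4 h, were treated with compound (10 μM-0.001 nM) plus 20 nM PGE2 (EC50-80) in HBSS buffer with 0.5 mM IBMX for 18.5 min at room temperature. cAMP was read by TR-FRET (665/615 nm) as % of DMSO control; IC50 from 4-parameter fit, median of multiple experiments.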

[2] = biological target: T2, hEP2 (Homo sapiens, UniProt P43116); assay: hEP2 cAMP assay; assay type: cell-based; conditions: HEK293 cells overexpressing hEP2; PGE2 agonist 400 pM; graded per Table 21; read-out: IC50 (nM) EP2 cAMP
T2 construct: expressed in transfected cells; host or cells: HEK293
Outline: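 HEK293 cells overexpressing hEP2, serum-starved 4 h, then 1,000 cells/well treated with compound (10 μM–0.001 nM) plus 400 pM PGE2 (about EC50-80) in HBSS buffer with 0.5 mM IBMX for 12 min at room temperature. cAMP measured by TR-FRET (665/615 nm) as % of DMSO control; IC50 from 4-parameter fit, median of repeats.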

T2 sequence (P43116 whole entry): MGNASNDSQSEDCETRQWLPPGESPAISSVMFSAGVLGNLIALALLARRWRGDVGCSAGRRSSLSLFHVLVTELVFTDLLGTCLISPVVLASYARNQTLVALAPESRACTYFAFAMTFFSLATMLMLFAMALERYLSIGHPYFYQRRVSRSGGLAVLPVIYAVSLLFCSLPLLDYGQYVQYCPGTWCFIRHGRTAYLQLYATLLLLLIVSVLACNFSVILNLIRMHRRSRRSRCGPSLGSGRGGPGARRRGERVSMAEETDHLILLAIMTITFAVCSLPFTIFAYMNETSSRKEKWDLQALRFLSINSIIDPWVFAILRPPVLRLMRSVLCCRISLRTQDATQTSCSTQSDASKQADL
T1 sequence (P35408 whole entry): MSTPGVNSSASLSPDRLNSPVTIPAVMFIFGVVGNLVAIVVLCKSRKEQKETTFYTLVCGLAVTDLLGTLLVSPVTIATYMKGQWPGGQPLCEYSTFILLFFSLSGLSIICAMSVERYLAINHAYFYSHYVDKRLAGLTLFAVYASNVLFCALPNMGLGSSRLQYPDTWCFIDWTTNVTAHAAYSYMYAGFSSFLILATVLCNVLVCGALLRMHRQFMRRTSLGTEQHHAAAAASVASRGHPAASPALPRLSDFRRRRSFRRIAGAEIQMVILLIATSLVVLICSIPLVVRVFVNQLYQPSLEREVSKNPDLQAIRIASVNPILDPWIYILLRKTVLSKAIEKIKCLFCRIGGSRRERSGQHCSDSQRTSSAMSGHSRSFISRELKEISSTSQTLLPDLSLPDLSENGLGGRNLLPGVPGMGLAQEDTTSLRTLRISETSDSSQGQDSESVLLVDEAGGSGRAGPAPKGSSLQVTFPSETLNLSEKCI

Row | SMILES | IC50 [1] [nM] | IC50 [2] [nM]
1 | Cc1sc(C)c(C(=O)NC2CC3(C2)CC(C(=O)O)C3)c1Cc1ccc(-c2ccccc2)c(N)c1 (stereo not shown) [Example 8, 6-(4-((2-amino-[1,1′-biphenyl]-4-yl)methyl)-2,5-dimethylthiophene-3-carboxamido)spiro [3.3]heptane-2-carboxylic acid] | 500 to 5000 | > 10000
2 | Cc1ccccc1-c1ccc(Cc2c(C)sc(C)c2C(=O)NC2CC3(C2)CC(C(=O)O)C3)cc1 (stereo not shown) [Example 38, 6-(2,5-dimethyl-4-((2′-methyl-[1,1′-biphenyl]-4-yl)methyl)thiophene-3-carboxamido)spiro[3.3]heptane-2-carboxylic acid] | 500 to 5000 | > 10000
3 | COc1cc(F)cc(-c2ccc(Cc3ccsc3C(=O)NC3CC4(C3)CC(C(=O)O)C4)cc2)c1 (stereo not shown) [Example 19, 6-(3-((3′-fluoro-5′-methoxy-[1,1′-biphenyl]-4-yl)methyl)thiophene-2-carboxamido) spiro[3.3]heptane-2-carboxylic acid] | < 500 | 500 to 5000
4 | Cc1sc(C)c(C(=O)NC2CC3(C2)CC(C(=O)O)C3)c1Cc1ccc(-c2ccc(F)cc2)cc1 (stereo not shown) [Example 69, 6-(4-((4′-fluoro-[1,1′-biphenyl]-4-yl)methyl)-2,5-dimethylthiophene-3-carboxamido)spiro[3.3]heptane-2-carboxylic acid] | < 500 | 500 to 5000
5 | Cc1sc(C)c(C(=O)NC2CC3(C2)CC(C(=O)O)C3)c1Cc1ccc(-c2cccnc2)cc1 (stereo not shown) [Example 27, 6-(2,5-dimethyl-4-(4-(pyridin-3-yl)benzyl)thiophene-3-carboxamido)spiro[3.3]heptane-2-carboxylic acid] | 500 to 5000 | > 10000
6 | Cc1sc(C)c(C(=O)NC2CC3(C2)CC(C(=O)O)C3)c1Cc1ccc(-c2cc(F)cc(CO)c2)cc1 (stereo not shown) [Example 60, 6-(4-((3′-fluoro-5′-(hydroxymethyl)-[1,1′-biphenyl]-4-yl)methyl)-2,5-dimethylthiophene-3-carboxamido)spiro[3.3]heptane-2-carboxylic acid] | < 500 | 5000 to 10000
7 | Cc1sc(C)c(C(=O)NC2CC3(C2)CC(C(=O)O)C3)c1Cc1ccc(-c2cc(F)cc(C3CNC3)c2)cc1 (stereo not shown) [Example 65, 6-(4-((3′-(azetidin-3-yl)-5′-fluoro-[1,1′-biphenyl]-4-yl)methyl)-2,5-dimethylthiophene-3-carboxamido)spiro[3.3]heptane-2-carboxylic acid] | 500 to 5000 | > 10000
8 | COc1ccc(F)cc1-c1ccc(Cc2c(C)sc(C)c2C(=O)NC2CC3(C2)CC(C(=O)O)C3)cc1 (stereo not shown) [Example 48, 6-(4-((5′-fluoro-2′-methoxy-[1,1′-biphenyl]-4-yl)methyl)-2,5-dimethylthiophene-3-carboxamido)spiro[3.3]heptane-2-carboxylic acid] | < 500 | > 10000
9 | COc1ccc(F)c(-c2ccc(Cc3c(C)sc(C)c3C(=O)NC3CC4(C3)CC(C(=O)O)C4)cc2)c1 (stereo not shown) [Example 47, 6-(4-((2′-fluoro-5′-methoxy-[1,1′-biphenyl]-4-yl)methyl)-2,5-dimethylthiophene-3-carboxamido)spiro[3.3]heptane-2-carboxylic acid] | 500 to 5000 | > 10000
10 | COc1ccc(-c2ccc(Cc3c(C)sc(C)c3C(=O)NC3CC4(C3)CC(C(=O)O)C4)cc2)cc1F (stereo not shown) [Example 40, 6-(4-((3′-fluoro-4′-methoxy-[1,1′-biphenyl]-4-yl)methyl)-2,5-dimethylthiophene-3-carboxamido)spiro[3.3]heptane-2-carboxylic acid] | < 500 | 5000 to 10000
11 | COc1cc(-c2ccc(Cc3c(C)sc(C)c3C(=O)NC3CC4(C3)CC(C(=O)O)C4)cc2)ccn1 (stereo not shown) [Example 50, 6-(4-(4-(2-methoxypyridin-4-yl)benzyl)-2,5-dimethylthiophene-3-carboxamido)spiro[3.3]heptane-2-carboxylic acid] | < 500 | > 10000
12 | Cc1ccc(Cc2c(C)sc(C)c2C(=O)NC2CC3(C2)CC(C(=O)O)C3)cc1 (stereo not shown) [Example 2, 6-(2,5-dimethyl-4-(4-methylbenzyl)thiophene-3-carboxamido)spiro[3.3]heptane-2-carboxylic acid] | > 10000 | > 10000
13 | Cc1sc(C)c(C(=O)NC2CC3(C2)CC(C(=O)O)C3)c1Cc1ccc(-c2ccccc2F)cc1 (stereo not shown) [Example 49, 6-(4-((2′-fluoro-[1,1′-biphenyl]-4-yl)methyl)-2,5-dimethylthiophene-3-carboxamido)spiro[3.3]heptane-2-carboxylic acid] | > 10000 | > 10000
14 | Cc1ccc(-c2ccc(Cc3c(C)sc(C)c3C(=O)NC3CC4(C3)CC(C(=O)O)C4)cc2)cc1C (stereo not shown) [Example 28, 6-(4-((3′,4′-dimethyl-[1,1′-biphenyl]-4-yl)methyl)-2,5-dimethylthiophene-3-carboxamido)spiro[3.3]heptane-2-carboxylic acid] | < 500 | 500 to 5000
15 | Cc1sc(C)c(C(=O)NC2CC3(C2)CC(C(=O)O)C3)c1Cc1ccc(N2CCOCC2)cc1 (stereo not shown) [Example 9, 6-(2,5-dimethyl-4-(4-morpholinobenzyl)thiophene-3-carboxamido)spiro[3.3]heptane-2-carboxylic acid] | > 10000 | > 10000
16 | CSc1cc(F)cc(-c2ccc(Cc3c(C)sc(C)c3C(=O)NC3CC4(C3)CC(C(=O)O)C4)cc2)c1 (stereo not shown) [Example 55, 6-(4-((3′-fluoro-5′-(methylthio)-[1,1′-biphenyl]-4-yl)methyl)-2,5-dimethylthiophene-3-carboxamido)spiro[3.3]heptane-2-carboxylic acid] | < 500 | 500 to 5000
17 | Cc1sc(C)c(C(=O)NC2CC3(C2)CC(C(=O)O)C3)c1Cc1ccc(-c2cccc(C#N)c2)cc1 (stereo not shown) [Example 30] | < 500 | > 10000

The next lines start with the values.

Row | IC50 [1] [nM] | IC50 [2] [nM] | SMILES
18 | < 500 | 500 to 5000 | Cc1scc(C(=O)NC2CC3(C2)CC(C(=O)O)C3)c1Cc1ccc(-c2ccccc2)cc1 (stereo not shown) [Example 20, 6-(4-([1,1′-biphenyl]-4-ylmethyl)-5-methylthiophene-3-carboxamido)spiro[3.3]heptane-2-carboxylic acid]
19 | < 500 | > 10000 | O=C(NC1CC2(C1)CC(C(=O)O)C2)c1csc2ccn(Cc3ccc4c(ccn4Cc4ccccc4)c3)c12 (stereo not shown) [Example 103, 6-(4-((1-benzyl-IH-indol-5-yl)methyl)-4H-thieno[3,2-b]pyrrole-3-carboxamido)spiro[3.3]heptane-2-carboxylic acid]
20 | > 10000 | > 10000 | Cc1sc(C)c(C(=O)N[C@H]2CC3(C2)C[C@H](C(=O)O)C3)c1Cc1ccc(-c2ccccc2)cc1 (single isomer, unassigned) [Example 1a]
21 | < 500 | < 500 | O=C(N[C@H]1CC2(C1)C[C@H](C(=O)O)C2)c1csc2ccn(Cc3ccc(-c4ccccc4)cc3)c12 (single isomer, unassigned) [Example 79b]
22 | 500 to 5000 | 500 to 5000 | O=C(NC1CC2(C1)CC(C(=O)O)C2)c1cscc1Cc1ccc(-c2ccccc2)cc1 (stereo not shown) [Example 13, 6-(4-([1,1′-biphenyl]-4-ylmethyl)thiophene-3-carboxamido)spiro[3.3]heptane-2-carboxylic acid]
23 | < 500 | 500 to 5000 | O=C(NC1CC2(C1)CC(C(=O)O)C2)c1c(Cl)sc2ccn(Cc3ccc(-c4ccccc4)cc3)c12 (stereo not shown) [Example 82, 6-(4-([1,1′-biphenyl]-4-ylmethyl)-2-chloro-4H-thieno[3,2-b]pyrrole-3-carboxamido)spiro[3.3]heptane-2-carboxylic acid]
24 | 500 to 5000 | > 10000 | Cc1sc(C)c(C(=O)NC2CC3(C2)CC(C(=O)O)C3)c1Cc1ccc(-c2ccncc2)cc1 (stereo not shown) [Example 26, 6-(2,5-dimethyl-4-(4-(pyridin-4-yl)benzyl)thiophene-3-carboxamido)spiro[3.3]heptane-2-carboxylic acid]
25 | < 500 | 500 to 5000 | COc1ccnc(-c2ccc(Cn3ccc4scc(C(=O)NC5CC6(C5)CC(C(=O)O)C6)c43)cc2)c1 (stereo not shown) [Example 109, 6-(4-(4-(4-methoxypyridin-2-yl)benzyl)-4H-thieno[3,2-b]pyrrole-3-carboxamido)spiro[3.3]heptane-2-carboxylic acid]
26 | 500 to 5000 | > 10000 | Cc1sc(C)c(C(=O)c2ccc(-c3ccccc3)cc2)c1C(=O)NC1CC2(C1)CC(C(=O)O)C2 (stereo not shown) [Example 10, 6-(4-([1,1′-biphenyl]-4-carbonyl)-2,5-dimethylthiophene-3-carboxamido)spiro[3.3]heptane-2-carboxylic acid]
